# Laboratory results as given in patent US11149033B2, “Heteroaryl compound, enantiomer, diastereomer or pharmaceutically acceptable salt thereof, and antiviral composition containing same as active ingredient” (priority 2016, dated 2021).
# Where two headings read alike, the source gives them in different places.
# Experiments:
# B/Florida/04/2006 = test: Antiviral activity (drug efficacy evaluation by concentration) against B/Florida/04/2006; format: cell-based, B type influenza virus
# [1] = test system: A/California/07/2009 (H1N1); test: Antiviral activity (drug efficacy evaluation by concentration) against A/California/07/2009 (H1N1); format: cell-based, A type influenza virus
# A/Perth/16/2009 (H3N2) = test: Antiviral activity (drug efficacy evaluation by concentration) against A/Perth/16/2009 (H3N2); format: cell-based, A type influenza virus
# MDCK cells = test: Cytotoxicity (CC50) in the influenza infection assay
# [2] = read-out: EC50 B/Florida/04/2006, B/Florida/04/2006
# [3] = A/California/07/2009 (H1N1), read-out: EC50 A/California/07/2009 (H1N1)
# [4] = A/Perth/16/2009 (H3N2), read-out: EC50 A/Perth/16/2009 (H3N2)
# [5] = read-out: CC50 A/California/07/2009 (H1N1), cytotoxicity in the A/California/07/2009 (H1N1) assay
# [6] = read-out: CC50 A/Perth/16/2009 (H3N2), cytotoxicity in the A/Perth/16/2009 (H3N2) assay
# [7] = read-out: CC50 B/Florida/04/2006, cytotoxicity in the B/Florida/04/2006 assay
# [8] = Influenza A virus, H1N1, A/California/07/2009 (H1N1), read-out: EC50 A/California/07/2009 (H1N1)
# [9] = Influenza A virus, H3N2, A/Perth/16/2009 (H3N2), read-out: EC50 A/Perth/16/2009 (H3N2)
# [10] = CC50 B/Florida/04/2006, cytotoxicity in the B/Florida/04/2006 assay
# [11] = Influenza A virus, H1N1, read-out: EC50
# [12] = Influenza A virus, H3N2, read-out: EC50
# [13] = CC50, third EC50/CC50 column pair (c7), beside the EC50 of c6
SMILES,EC50 (B/Florida/04/2006; [2]) [µM],"EC50 [1, 3] [µM]",EC50 (A/Perth/16/2009 (H3N2); [4]) [µM],CC50 (MDCK cells; [5]) [µM],CC50 (MDCK cells; [6]) [µM],CC50 (MDCK cells; [7]) [µM],"EC50 [1, 8] [µM]",EC50 (A/Perth/16/2009 (H3N2); [9]) [µM],melting point [°C],CC50 (in vitro; [10]) [µM],EC50 (B/Florida/04/2006) [µM],"EC50 [1, 11] [µM]",EC50 (A/Perth/16/2009 (H3N2); [12]) [µM],"CC50 (in vitro; CC50, beside the EC50 of c2) [µM]","CC50 (in vitro; CC50, beside the EC50 of c4) [µM]",CC50 (in vitro; [13]) [µM]
"Cc1nn(Cc2nnc(SCc3ccccc3-c3ccncc3)o2)c(C)c1Br [Compound 20, 2-((4-bromo-3,5-dimethyl-1H-pyrazol-1-yl)methyl)-5-((2-(pyridin-4-yl)benzyl)thio)-1,3,4-oxadiazole]",0.66,0.7,0.7,8.3,10.2,10.2,,,,,,,,,,
"Cc1nn(Cc2nnc(SCc3ccccc3-c3ccncc3)o2)c(C)c1Br [Compound 15, 2-((4-bromo-3,5-dimethyl-1H-pyrazol-1-yl)methyl)-5-((2-(pyridin-4-yl)benzyl)thio)-1,3,4-oxadiazole]",8.18,8.9,11.6,> 50,> 50,> 50,,,,,,,,,,
"O=S(=O)(Cc1ccccc1-c1ccccc1)c1nnc(Cc2ccc(Br)cc2)o1 [Compound 60, 2-(([1,1′-biphenyl]-2-ylmethyl)sulfonyl)-5-(4-bromobenzyl)-1,3,4-oxadiazole]",4.11,,,,,,12.1,6.36,134.2,8.46,,,,,,
"Cc1ccc(F)c(Cc2nnc(/C=C/c3ccc(F)cc3Cl)o2)c1 [Compound 177, (E)-2-(2-chloro-4-fluorostyryl)-5-(2-fluoro-5-methylbenzyl)-1,3,4-oxadiazole]",,,,,,,,,136.9,,1.07,0.835,0.753,> 50,> 50,> 50
"COc1ccccc1/C=C/c1nnc(Nc2ccc(Br)cc2)o1 [Compound 120, (E)-N-(4-bromophenyl)-5-(2-methoxystyryl)-1,3,4-oxadiazol-2-amine]",,,,,,,,,232.4,,17.4,23.1,18.1,> 50,> 50,
"Cc1nn(Cc2nnc(SCc3ccccc3Oc3ccccc3)o2)c(C)c1Br [Compound 29, 2-((4-bromo-3,5-dimethyl-1H-pyrazol-1-yl)methyl)-5-((2-phenoxybenzyl)thio)-1,3,4-oxadiazole]",1.99,,,,,,1.2,1.4,92.3,5.23,,,,,,
"Fc1ccc(/C=C/c2nnc(Cc3ccc(Cl)nc3)o2)c(Cl)c1 [Compound 180, (E)-2-(2-chloro-4-fluorostyryl)-5-((6-chloropyridin-3-yl)methyl)-1,3,4-oxadiazole]",,,,,,,,,163,,0.98,1.05,0.51,> 50,> 50,> 50
"Cc1ccc(/C=C/c2nnc(Cc3cccc(Br)c3)o2)c(C)c1 [Compound 200, 2-(3-bromobenzyl)-5-(2,4-dimethylstyryl)-1,3,4-oxadiazole]",,,,,,,,,74.2,,10.2,11.7,11.9,> 50,> 50,> 50
"Cc1ccc(-c2ccccc2CSc2nnc(Cn3nc(C)c(Br)c3C)o2)cc1 [Compound 32, 2-((4-bromo-3,5-dimethyl-1H-pyrazol-1-yl)methyl)-5-(((4′-methyl-[1,1′-biphenyl]-2-yl)methyl)thio)-1,3,4-oxadiazole]",1.38,,,,,,0.6,0.5,102.3,7.32,,,,,,
"Fc1ccc(/C=C/c2nnc(Cc3cccc(Br)c3)o2)c(Cl)c1 [Compound 178, (E)-2-(3-bromobenzyl)-5-(2-chloro-4-fluorostyryl)-1,3,4-oxadiazole]",,,,,,,,,121.7,,0.95,0.99,0.75,> 50,> 50,> 50
"Brc1ccc(Cc2noc(/C=C/c3ccccc3)n2)cc1 [Compound 174, (E)-3-(4-bromobenzyl)-5-styryl-1,2,4-oxadiazole]",,,,,,,,,86.7,,1.45,3.78,1.54,6.53,5.46,6.3
"Cc1cccc(C)c1Nc1nnc(CCc2ccccc2C(C)C)o1 [Compound 85, N-(2,6-dimethylphenyl)-5-(2-isopropylphenethyl)-1,3,4-oxadiazol-2-amine]",,,,,,,,,234.1,,> 50,> 50,> 50,> 50,> 50,> 50
"Brc1ccc(Nc2nnc(/C=C/c3ccccc3C3CCCCC3)o2)cc1 [Compound 116, (E)-N-(4-bromophenyl)-5-(2-cyclohexylstyryl)-1,3,4-oxadiazol-2-amine]",,,,,,,,,228.3,,34.5,36.2,35.1,> 50,> 50,
"CC(C)c1ccccc1/C=C/c1nnc(Cc2cccc3ccccc23)o1 [Compound 132, 2-(2-isopropylstyryl)-5-(naphthalen-1-ylmethyl)-1,3,4-oxadiazole]",,,,,,,,,148.1,,1.58,1.52,1.14,10.8,12.2,13.6
"Cc1cc(C)cc(Nc2nnc(SCc3ccccc3-c3ccccc3)o2)c1 [Compound 68, 5-(([1,1′-biphenyl]-2-ylmethyl)thio)-N-(3,5-dimethylphenyl)-1,3,4-oxadiazol-2-amine]",1.83,,,,,,2.77,1.6,232.2,> 50,,,,,,
"Brc1ccc(-c2nnc(SCc3ccccc3-c3ccccc3)o2)cc1 [Compound 42, 2-(([1,1′-biphenyl]-2-ylmethyl)thio)-5-(4-bromophenyl)-1,3,4-oxadiazole]",2.92,,,,,,1.62,2.33,120.5,14.8,,,,,,
"Fc1cccc(/C=C/c2nnc(Cc3cccc(Br)c3)o2)c1Cl [Compound 194, 2-(3-bromobenzyl)-5-(2-chloro-3-fluorostyryl)-1,3,4-oxadiazole]",,,,,,,,,140.2,,1.53,1.31,1.43,49.9,> 50,> 50
"Oc1ccccc1/C=C/c1nnc(Cc2ccc(Br)cc2)o1 [Compound 209, 2-(2-(5-(4-bromobenzyl)-1,3,4-oxadiazol-2-yl)vinyl)phenol]",,,,,,,,,168.3,,> 50,46.8,28.6,> 50,> 50,> 50
"COc1ccccc1CSc1nnc(Cn2nc(C)c(Br)c2C)o1 [Compound 10, 2-((4-bromo-3,5-dimethyl-1H-pyrazol-1-yl)methyl)-5-((2-methoxybenzyl)thio)-1,3,4-oxadiazole]",15.5,,,,,,16.8,18.4,87.3,> 50,,,,,,
"Cc1ccc(Cc2nnc(/C=C/c3ccc(F)cc3Cl)o2)cc1Br [Compound 181, (E)-2-(3-bromo-4-methylbenzyl)-5-(2-chloro-4-fluorostyryl)-1,3,4-oxadiazole]",,,,,,,,,139,,8.29,10.9,5.56,> 50,> 50,> 50
"CC(C)c1ccccc1/C=C/c1nnc(Cc2ccc(Br)cc2F)o1 [Compound 169, 2-(4-bromo-2-fluorobenzyl)-5-(2-isopropylstyryl)-1,3,4-oxadiazole]",,,,,,,,,71.9,,3.08,2.13,2.22,20.3,> 50,37.2
